This is an account of results in PubChem BioAssay (NCI).

“And” between values parts separate entries of the source, which are not always exact repeats. Equal entries are not always repeated.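 96-well plates; 48 h exposure; 5 concentrations. Endpoints by linear interpolation between flanking doses. Not reached: highest tested concentration assigned. GI50 is the concentration that inhibits growth by half. TGI: total growth inhibition.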 Some results are limits rather than exact numbers.

What all share (assay): inhibition of tumour cell growth, NCI panel, 48 h
The subject of assay [1] is DU-145 prostate.
Assay [2] has as its system HS 578T breast.
The test system of assay [3] is K-562 leukemia.
Assay [4] deals with KM12 colon.
The test system of assay [5] is SK-OV-3 ovarian.
The subject of assay [6] is SK-MEL-2 melanoma.
Assay [7] concerns NCI-H23 lung.
Assay [8] has as its system IGROV1 ovarian.
For assay [9], the system named is SN12C renal.
Assay [10] has as its system MDA-MB-231 breast.

Regarding `COc1cc2cc(Oc3ccc(NC(=O)c4ccc(Cl)c(Cl)c4)cc3)c(C)nc2cc1OC`, the GI50 in [1] is over 100 µM; in assay [2], 7.24 µM; in assay [3], 7.23 µM; in assay [4], 12.7 µM; in assay [5], over 100 µM; in assay [6] it was over 100 µM. The GI50 was 6.68 µM in assay [7], over 100 µM in [8], over 100 µM in assay [9] and 9.89 µM in assay [10]. Moreover, the TGI in assay [1], in [2], in assay [3], in assay [4], in assay [5] and in [6] was over 100 µM throughout. In addition, the TGI in assay [7], in [8], in assay [9] and in assay [10] was over 100 µM in each case.
For the compound `Cc1cc(C)c(C2CNCc3cc4c(cc32)CNCC4c2c(C)cc(C)cc2C)c(C)c1` (stereo not given), the GI50 in [1] was 7.21 mg/L; in assay [2] it was 3.43 mg/L; in assay [3], 1.1 mg/L; in assay [4], 2.6 mg/L; in assay [5], 10.2 mg/L; in assay [6], 2.92 mg/L. Further, the GI50 in [7] was 15.9 mg/L; in assay [8], 4.68 mg/L; in assay [9] it was 2.59 mg/L; in assay [10] it was 2.42 mg/L. Besides, the TGI amounted to 19.8 mg/L in [1]; 13.5 mg/L in assay [2]; 3.22 mg/L in assay [3]; 6.74 mg/L in assay [4]; 21.8 mg/L in [5]; 7.4 mg/L in assay [6]. Moreover, the TGI was determined as 30.4 mg/L in assay [7], 18 mg/L in assay [8], 9.63 mg/L in assay [9] and 11.4 mg/L in [10].
As for `CC(C)C[C@H](NC(=O)CCn1ccc2ccccc2c1=O)B(O)O`, the GI50 in [1] was 9.13 µM; in [2] it was 3.63 µM; in [3], 4.97 µM; in [4] it was 7.51 µM; in [5], 4.72 µM; in assay [6], 3.58 µM. Also, the GI50 is 25.4 µM in assay [7], 12.3 µM in assay [8], 11.2 µM in [9] and 9.45 µM in assay [10]. The TGI in assay [1] was over 100 µM; in assay [2], 48.7 µM; in [3] it was over 100 µM; in assay [4], 29.8 µM; in assay [5] it was 81.3 µM; in assay [6], 32.5 µM. For the same compound, the TGI was over 100 µM in [7], over 100 µM in assay [8], 55.4 µM in assay [9] and 59.3 µM in [10].
As to `CN=C1OC2(c3ccccc3)C3=C(OC(=NC)N2C)C(=O)OC3(c2ccccc2)N1C` (stereo not given), the TGI in assay [1], in assay [2], in assay [3], in [4], in [5] and in assay [6] was over 100 µM in each case. Besides, the TGI in [7], in assay [8], in [9] and in [10] was over 100 µM throughout.
For the compound `COc1ccc(/C=C(/C)[N+](=O)[O-])cc1OC`, the GI50 was 2.42 µM and 2.45 µM in [1]; 6.2 µM and 5.55 µM in assay [2]; 1.31 µM and 1.72 µM in [3]; 3.66 µM and 2.1 µM in [4]; 14.3 µM and 16.7 µM in assay [5]; 2.39 µM and 1.81 µM in assay [6]. For the same compound, the GI50 is 1.9 µM and 1.98 µM in assay [7]; 2.79 µM and 2.26 µM in assay [8]; 2.35 µM and 2.18 µM in [9]; 1.97 µM and 2.38 µM in assay [10]. For the same compound, the TGI in assay [1] was 5.72 µM and 5.67 µM; in [2] it was over 100 µM; in assay [3] it was over 100 µM; in assay [4], 9.69 µM and 5.79 µM; in [5] it was 27.4 µM and 30.4 µM; in assay [6], 4.9 µM and 4 µM. Further, the TGI in [7] is 4.24 µM and 4.6 µM; in assay [8], 7.75 µM and 5.68 µM; in [9] it was 6.07 µM and 5.77 µM; in assay [10] it was 4.26 µM and 5.02 µM.
In the case of `O=C(Nc1ccccc1OC(=O)c1ccccc1)c1ccccc1`, the GI50 was 23.1 µM in [1]; 4.72 µM in assay [2]; 3.22 µM in assay [3]; 3.12 µM in assay [4]; 33.6 µM in assay [5]; 51.1 µM in assay [6]. For the same compound, the GI50 was 8.05 µM in [7], 2.91 µM in [8], 28.1 µM in assay [9] and 6.44 µM in assay [10]. The TGI is 88.7 µM in [1]; over 100 µM in assay [2]; over 100 µM in assay [3]; 10.9 µM in assay [4]; over 100 µM in assay [5]; over 100 µM in assay [6]. Also, the TGI is over 100 µM in assay [7], 17.1 µM in assay [8], over 100 µM in assay [9] and over 100 µM in assay [10].
As to `Cc1[nH]nc(-c2ccon2)c1N=O`, the TGI in assay [1] is 41.2 µM; in assay [2] it was 80.7 µM; in [3] it was 44.8 µM; in assay [4] it was 38.4 µM; in [5], 89.2 µM; in [6], over 100 µM. Moreover, the TGI in assay [7] is 45.8 µM; in [8], 70.1 µM; in assay [9], 42 µM; in assay [10], 32.4 µM.
